This is an account of results in paper PMC6000956, “Immunomodulatory activities of pixatimod: emerging nonclinical and clinical data, and its potential utility in combination with PD-1 inhibitors” (Journal for Immunotherapy of Cancer, 2018).

One data set has as its system rats. As to the kind of experiment: Repeated weekly SC toxicology in rats (organ weights). Format: in vivo. Conditions: weekly SC x5, 3, 12 and 48 mg/kg. On the procedure:
(§1) Supplementary file 40425_2018_363_MOESM2_ESM.pptx: Additional file 2: Effect of pixatimod dosing on selected organ weights in beagle dogs (IV and SC) and rats (SC). Repeated weekly IV exposure (× 5) of pixatimod increases the relative weights of liver (A) and kidney (B) but not thymus (C) nor spleen (D) in beagle dogs. […] Data shown is for combined sexes. […] Study size, n = 15 for control and 48 mg/kg groups and n = 10 for 3 and 12 mg/kg groups. […] Study size, n = 5 for control and 20 mg/kg groups and n = 3 for 2.5 and 7.5 mg/kg groups. *P < 0.05, **P < 0.01, ***P < 0.001 versus control (Kruskal-Wallis test for the dog study, ANOVA followed by Dunnett’s comparison for the rat study). (PPTX 65 kb)

The next data set concerns NK cells. As to the kind of experiment: NK cell activation in spleen by route of administration. Format: in vivo, C57BL/6 mice. Conditions: 20 mg/kg IP, IV or SC, spleens 2 days later; similar magnitude irrespective of route. On the procedure:
To investigate the effect that pixatimod route of administration has upon the activity of this compound, C57BL/6 mice were treated with pixatimod 20 mg/kg intraperitoneally (IP), intravenously (IV) or subcutaneously (SC) and 2 days later, spleens were isolated to study the activation levels of NK cells for surface expression of CD69 or intracellular expression of IFN-γ. Antibodies were CD3ε (145-2C11), NK1.1 (PK136), CD69 (H1.2F3), IFN-γ (XMG1.2), hamster IgG1 isotype (G235–2356) and rat IgG1 isotype (R3–34) were from BD Biosciences (San Jose, CA, USA). Intracellular staining for IFN-γ was performed following ex vivo stimulation of splenocytes for 4 h with 20 ng/ml PMA and 50 ng/ml ionomycin in the presence of 5 μg/mL brefeldin A. Intracellular staining for IFN-γ was performed following treatment with Cytofix/Cytoperm (BD Biosciences) solution. Flow cytometric data were acquired using a FACSCanto flow cytometer (BD Biosciences), and events were analysed using FlowJo Version 9.9.6 software (TreeStar, Ashland, OR, USA).

Data set [1] in a line: Plasma exposure in the Phase Ia monotherapy study (PG545102), IV infusion. The class given is in vivo. Conditions: human. On the procedure: (§2) A 1 month toxicology study of pixatimod in beagle dogs was performed under OECD Good Laboratory Practice (GLP) to assess the toxicity and toxicokinetic profile of pixatimod with 5 intravenous, short term (approximately 1 h) infusions at three defined dose levels of 2.5, 7.5 and 20 mg/kg weekly over 29 days. Blood samples were collected for toxicokinetic investigation to provide information on the systemic exposure. Parameters monitored included mortality and morbidity, clinical signs, food consumption, body weight and body temperature, ophthalmoscopy and electrocardiographic measurements. Laboratory investigations were performed using haematology (ADVIA 120), coagulation (AMAX Density Plus Coagulometer), clinical chemistry (VITROS 950) and urinalysis (URYXXON 300). At the end of the treatment, all animals were euthanized and subjected to a complete necropsy with selected organs weighed and followed by a detailed histopathology evaluation. Bone marrow smears from the femur and sternum were prepared at necropsy, fixed and stained with May-Grünwald and Giemsa stain for analysis. Blood samples obtained during the Phase Ia monotherapy study (PG545102) were collected weekly and the parameters reported herein were analysed by local hospital laboratories.
(§3) Plasma samples were analysed using a LC-MS/MS method as previously described. Pharmacokinetic parameters in animal studies were determined by non-compartmental analyses (NCA) of the mean plasma pixatimod concentration vs time profiles for each dose using the linear trapezoidal method in WinNonlin 5.2.1. For comparison with previous animal studies, exposure data (AUC0-last) in clinical samples were derived using individual subject NCA type exposure parameters from the original plasma concentration data using R (64-bit) Version 3.0.1.

For a further data set, the system named is advanced cancer patients. Also on record: method as in PMID 29531325. Conditions: cited from earlier work.
The nature of data set [2]: Toxicokinetics in the 1 month IV toxicology study in beagle dogs. Format: in vivo. Conditions: dog, plasma. The protocol: as §2, §3
A further data set concerns beagle dogs. As to the kind of experiment: Previous repeated weekly SC toxicology study in beagle dogs (organ weights). Conditions: weekly SC x5, 2.5, 7.5 and 20 mg/kg. Format: in vivo. The protocol: as §1

In the case of `CC(C)CCC[C@@H](C)[C@H]1CC[C@H]2[C@@H]3CC[C@H]4C[C@@H](O[C@@H]5O[C@H](COS(=O)(=O)O)[C@@H](O[C@H]6O[C@H](COS(=O)(=O)O)[C@@H](O[C@H]7O[C@H](COS(=O)(=O)O)[C@@H](O[C@H]8O[C@H](COS(=O)(=O)O)[C@@H](OS(=O)(=O)O)[C@H](OS(=O)(=O)O)[C@H]8OS(=O)(=O)O)[C@H](OS(=O)(=O)O)[C@H]7OS(=O)(=O)O)[C@H](OS(=O)(=O)O)[C@H]6OS(=O)(=O)O)[C@H](OS(=O)(=O)O)[C@H]5OS(=O)(=O)O)CC[C@]4(C)[C@H]3CC[C@]12C` [pixatimod], in the data set with rats, the Relative spleen weight result was “increased in a dose-dependent manner”. Also, the “expression of IFN-γ and CD69 on NK cells” value in the data set with NK cells is “increased”. Besides, the AUC(0-t) in data set [1] (25 mg, 25 mg weekly IV, read-out: AUC0-last Week 1) came to 465 µg·h/mL; in data set [1] (25 mg, 25 mg weekly IV, read-out: AUC0-last Week 4), 610 µg·h/mL; in data set [1] (50 mg, 50 mg weekly IV, read-out: AUC0-last Week 1) it was 709 µg·h/mL; in data set [1] (50 mg, 50 mg weekly IV, read-out: AUC0-last Week 4), 1690 µg·h/mL; in data set [1] (100 mg, 100 mg weekly IV, read-out: AUC0-last Week 1), 1210 µg·h/mL; in data set [1] (100 mg, 100 mg weekly IV, read-out: AUC0-last Week 4), 2380 µg·h/mL. Further, the AUC(0-t) in data set [1] (150 mg, 150 mg weekly IV, read-out: AUC0-last Week 1) was determined as 1440 µg·h/mL; in data set [1] (150 mg, 150 mg weekly IV, read-out: AUC0-last Week 4) it was 2780 µg·h/mL; in data set [2] (2.5 mg/kg, 2.5 mg/kg weekly IV (HED 83 mg), read-out: AUC0-last Week 1), 697 µg·h/mL; in data set [2] (2.5 mg/kg, 2.5 mg/kg weekly IV (HED 83 mg), read-out: AUC0-last Week 4) it was 1370 µg·h/mL; in data set [2] (7.5 mg/kg, 7.5 mg/kg weekly IV (HED 250 mg), read-out: AUC0-last Week 1) it was 1810 µg·h/mL; in data set [2] (7.5 mg/kg, 7.5 mg/kg weekly IV (HED 250 mg), read-out: AUC0-last Week 4), 4940 µg·h/mL. For the same compound, the AUC(0-t) was found to be 6880 µg·h/mL in data set [2] (20 mg/kg, 20 mg/kg weekly IV (HED 666 mg), read-out: AUC0-last Week 1) and 10500 µg·h/mL in data set [2] (20 mg/kg, 20 mg/kg weekly IV (HED 666 mg), read-out: AUC0-last Week 4). The “dose up to which the compound was well tolerated” value in the data set on advanced cancer patients (IV infusion, monotherapy clinical trial) is recorded as “up to 100 mg”. Also, in the data set with advanced cancer patients (Phase Ia monotherapy trial), the “patients with treatment emergent adverse events possibly, likely, or certainly related to pixatimod” value is recorded as 20. Also, the “estimated median duration of SD” value in the data set on advanced cancer patients was 57 days. Besides, the “patients with stable disease (SD) at 8 weeks by RECIST 1.1” value with advanced cancer patients (of 16 patients with efficacy assessments) was “six”. In the data set with advanced cancer patients (required prophylactic paracetamol), the “doses inducing flu-like symptoms in patients” value is at least 50 mg. Besides, in the data set on advanced cancer patients (six of sixteen assessed), the “disease control rate at 8 weeks” value is recorded as 38%. In addition, in the data set with beagle dogs, the spleen weight result is recorded as “no significant effect”.
